Measured values taken from US9809598B2 (Merck Patent GmbH, priority 2014, dated 2017).
Like-named read-outs stand apart in the source and are kept apart here.

Key:
PARP-1 = target: T1, PARP-1 (Homo sapiens, UniProt P09874); assay: PARP-1 autoparsylation assay (HTRF); type: biochemical; details: His-tagged Parp-1, autoparsylation HTRF
T1 construct: purchased Enzo Life Sciences GmbH, Lörrach, Germany
From the text: Description of the PARP1 Assay
Biochemical Activity Testing of PARP-1: Autoparsylation Assay
The autoparsylation assay is run in two steps: the enzymatic reaction in which His-tagged Parp-1 transfers biotinylated ADP-ribose/ADP-ribose to itself from biotinylated NAD/NAD as co-substrate and the detection reaction where a time resolved FRET between cryptate labelled anti-His antibody bound to the His tag of the enzyme and Xlent® labelled-streptavidin bound the biotin-parsylation residue is analysed. The autoparsylation activity is detectable directly via the increase in HTRF signal.
The autoparsylation assay is performed as 384-well HTRF® (Cisbio, Codolet, France) assay format in Greiner low volume nb 384-well microtiter plates. […] The ratio of the emission signals is determined. The full value used is the inhibitor-free reaction. The pharmacological zero value used is Olaparib (LClabs, Woburn, US) in a final concentration of 1 μM. The inhibitory values (IC50) are determined using either the program Symyx Assay Explorer® or Condosseo® from GeneData.

TNKS1 = target: T2, TNKS1 (Homo sapiens, UniProt O95271); assay: TNKS1 activity ELISA (autoparsylation assay); type: biochemical; details: GST-tagged Tnks-1 (1023-1327 aa)
T2 construct: GST-tagged Tnks-1 (1023-1327 aa, prepared in-house); made in house
T2 sequence (O95271 1023-1327): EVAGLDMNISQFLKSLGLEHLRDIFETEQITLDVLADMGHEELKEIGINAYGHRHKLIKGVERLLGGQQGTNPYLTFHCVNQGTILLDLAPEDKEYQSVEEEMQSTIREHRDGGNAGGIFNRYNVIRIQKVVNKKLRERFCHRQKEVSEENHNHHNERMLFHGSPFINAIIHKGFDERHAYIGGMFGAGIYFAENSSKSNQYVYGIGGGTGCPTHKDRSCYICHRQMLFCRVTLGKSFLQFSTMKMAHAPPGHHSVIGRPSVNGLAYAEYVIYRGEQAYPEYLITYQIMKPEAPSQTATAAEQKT
Protocol: (§1) Description of the TNKS1 and TNKS2 ELISA Assay
(§2) Biochemical Activity Testing of TNKS 1 and 2: Activity ELISA (Autoparsylation Assay)
(§3) For analysis of autoparsylation activity of TNKS 1 and 2 an activity ELISA iss performed: In the first step GST tagged TNKS is captured on a Glutathione coated plate. Then the activity assay with biotinylated NAD is performed in the absence/presence of the compounds. During the enzymatic reaction GST tagged TNKS transfers biotinylated ADP-ribose to itself from biotinylated NAD as co-substrate. For the detection streptavidin-HRP conjugate is added that binds to the biotinylated TNKS and is thereby captured to the plates. The amount of biotinylated resp. autoparsylated TNKS is detected with a luminescence substrate for HRP. The level of the luminescence signal correlats directly with the amount of autoparsylated TNKS and therefore with activity of TNKS.
(§4) The activity ELISA is performed in 384 well Glutathione coated microtiter plates (Express capture Glutathione coated plate, Biocat, Heidelberg, Germany). The plates are pre-equilibrated with PBS. […] The plates are washed 3 times with PBS-Tween-20. The wells are blocked by incubation at room temperature for 20 minutes with 50 μl blocking buffer (PBS, 0.05% Tween-20, 0.5% BSA). Afterwards the plates are washed 3 times with PBS-Tween-20. […] The reaction is stopped by 3 times washing with PBS-Tween-20. For the detection 50 μl of 20 ng/μl Streptavidin, HRP conjugate (MoBiTec, Göttingen, Germany) in PBS/0.05% Tween-20/0.01% BSA are added and the plates are incubated for 30 minutes at room temperature. After three times washing with PBS-Tween-20 50 μl of SuperSignal ELISA Femto Maximum sensitivity substrate solution (ThermoFisherScientific (Pierce), Bonn, Germany) are added. Following a 1 minute incubation at room temperature luminescence signals are measured with an Envision multimode reader (Perkin Elmer LAS Germany GmbH) at 700 nm. The full value used is the inhibitor-free reaction. […] The inhibitory values (IC50) are determined using either the program Symyx Assay Explorer® or Condosseo® from GeneData.

TNKS2 = target: T3, TNKS2 (Homo sapiens, UniProt Q9H2K2); assay: TNKS2 activity ELISA (autoparsylation assay); type: biochemical
T3 construct: GST-tagged Tnks-2 (873-1166 aa, prepared in-house); made in house
T3 sequence (Q9H2K2 873-1166): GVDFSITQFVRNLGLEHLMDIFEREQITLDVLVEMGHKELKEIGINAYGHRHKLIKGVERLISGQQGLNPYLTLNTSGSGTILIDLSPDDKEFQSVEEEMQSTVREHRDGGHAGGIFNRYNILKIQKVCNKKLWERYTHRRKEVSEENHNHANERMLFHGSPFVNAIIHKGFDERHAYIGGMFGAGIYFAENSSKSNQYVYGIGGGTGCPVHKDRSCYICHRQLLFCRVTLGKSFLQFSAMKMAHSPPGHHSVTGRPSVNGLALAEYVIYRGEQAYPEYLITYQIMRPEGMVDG
Protocol: as §1, §2, §3, §4

Tankyrases = details: read-out: EC50 [M] TNKS cellular assay; DLD1 cells, 24 hours, Axin2 increase
Protocol: Measurement of Cellular Inhibition of Tankyrase
Cells of the colon carcinoma cell line DLD1 are plated in 96 well plates with 1.5×10^4 cells per well. Next day, cells are treated with a serial dilution of test compound in seven steps as triplicates with a final DMSO concentration of 0.3%. […] The amount of isolated Axin2 protein is determined in a Luminex^200 machine (Luminex Corporation) according to the manufacturer's instruction by counting 100 events per well. […] As controls cells are treated with solvent alone (neutral control) and with a Tankyrase reference inhibitor IWR-2 (3E−06 M) which refers as control for maximum increase of Axin2. For analysis, the obtained data are normalized against the untreated solvent control and fitted for determination of the EC50 values using the Assay Explorer software (Accelrys).

[1] = GST-tagged Tnks-2 (873-1166 aa), read-out: IC50 [M] TNKS2 ELISA

T1 sequence (P09874 whole entry): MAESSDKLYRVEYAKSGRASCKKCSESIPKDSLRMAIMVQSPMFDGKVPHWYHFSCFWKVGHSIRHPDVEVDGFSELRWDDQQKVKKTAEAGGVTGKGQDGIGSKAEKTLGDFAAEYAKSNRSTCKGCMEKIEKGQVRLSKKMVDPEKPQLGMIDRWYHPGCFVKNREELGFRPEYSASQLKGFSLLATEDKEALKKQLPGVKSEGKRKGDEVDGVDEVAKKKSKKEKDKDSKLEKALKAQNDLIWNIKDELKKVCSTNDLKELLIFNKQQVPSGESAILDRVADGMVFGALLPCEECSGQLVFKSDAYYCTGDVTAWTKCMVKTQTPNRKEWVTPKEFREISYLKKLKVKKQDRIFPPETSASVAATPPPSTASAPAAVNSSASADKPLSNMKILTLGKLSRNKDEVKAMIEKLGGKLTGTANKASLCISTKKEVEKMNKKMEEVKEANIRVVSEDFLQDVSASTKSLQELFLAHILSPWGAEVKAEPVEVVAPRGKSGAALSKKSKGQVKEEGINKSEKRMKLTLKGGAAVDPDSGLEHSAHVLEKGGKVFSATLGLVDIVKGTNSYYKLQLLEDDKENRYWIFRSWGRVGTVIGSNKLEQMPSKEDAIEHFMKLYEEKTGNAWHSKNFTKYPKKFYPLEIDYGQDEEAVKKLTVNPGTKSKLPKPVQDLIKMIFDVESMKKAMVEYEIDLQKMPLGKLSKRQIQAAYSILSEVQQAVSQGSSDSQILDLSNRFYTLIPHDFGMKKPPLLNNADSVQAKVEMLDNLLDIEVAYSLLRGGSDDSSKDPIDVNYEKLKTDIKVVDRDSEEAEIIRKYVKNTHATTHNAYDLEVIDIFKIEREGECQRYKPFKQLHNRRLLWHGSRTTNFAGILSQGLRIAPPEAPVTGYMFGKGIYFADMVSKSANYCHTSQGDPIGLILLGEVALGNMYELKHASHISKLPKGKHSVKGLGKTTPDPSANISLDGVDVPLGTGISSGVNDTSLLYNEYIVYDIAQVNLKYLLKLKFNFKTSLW

| Structure (SMILES) | IC50 (PARP-1) [nM] | IC50 (TNKS1) [nM] | IC50 (TNKS2; [1]) [M] | EC50 (Tankyrases) [M] | IC50 (TNKS2) [M] |
| --- | --- | --- | --- | --- | --- |
| Cn1cc(C(=O)C2CCN(C(=O)CCCc3cn4cccc4c(=O)[nH]3)CC2)cn1 [Compound C22, 3-{4-[4-(1-Methyl-1H-pyrazole-4-carbonyl)-piperidin-1-yl]-4-oxo-butyl}-2H-pyrrolo[1,2-a]pyrazin-1-one] | 5200 | 0.25 | 3e-10 | 4.5e-09 | – |
| COc1ccc(C(=O)C2CCN(C(=O)CCCc3cn4c(C)ncc4c(=O)[nH]3)CC2)cc1 [Compound C33, 6-{4-[4-(4-Methoxy-benzoyl)-piperidin-1-yl]-4-oxo-butyl}-3-methyl-7H-imidazo[1,5-a]pyrazin-8-one] | 5500 | 0.16 | 1.2e-10 | 1.5e-09 | – |
| COc1ccc(C(=O)C2CCN(C(=O)CCCc3nc4c(C)scc4c(=O)[nH]3)CC2)cc1 [Compound C34, 2-{4-[4-(4-Methoxy-benzoyl)-piperidin-1-yl]-4-oxo-butyl}-7-methyl-3H-thieno[3,4-d]pyrimidin-4-one] | 1100 | 0.54 | 3.3e-10 | 4.8e-09 | – |
| COc1ccc(C(=O)C2CCN(C(=O)CCCc3nc4c(C)csc4c(=O)[nH]3)CC2)cc1 [Compound C35, 2-{4-[4-(4-Methoxy-benzoyl)-piperidin-1-yl]-4-oxo-butyl}-7-methyl-3H-thieno-[3,2-d]pyrimidin-4-one] | 130 | 0.19 | 1.1e-10 | 4.2e-10 | – |
| COc1ccc(C(=O)C2CCN(C(=O)CCCc3nn4cccc4c(=O)[nH]3)CC2)cc1 [Compound C36, 2-{4-[4-(4-Methoxy-benzoyl)-piperidin-1-yl]-4-oxo-butyl}-3H-pyrrolo[2,1-f][1,2,4]triazin-4-one] | 3500 | 0.39 | 2.8e-10 | 4.1e-09 | – |
| COc1ccc(C(=O)C2CCN(C(=O)CCCc3nn4c(C)ccc4c(=O)[nH]3)CC2)cc1 [Compound C37, 2-{4-[4-(4-Methoxybenzoyl)-piperidin-1-yl]-4-oxo-butyl}-7-methyl-3H-pyrrolo[2,1-f][1,2,4]triazin-4-one] | 620 | < 0.1 | < 1e-10 | 1e-09 | – |
| COc1ccc(C(=O)C2CCN(C(=O)CCCc3nn4cc(C)cc4c(=O)[nH]3)CC2)cc1 [Compound C38, 2-{4-[4-(4-Methoxy-benzoyl)-piperidin-1-yl]-4-oxo-butyl}-6-methyl-3H-pyrrolo[2,1-f][1,2,4]triazin-4-one] | 2400 | 0.28 | 1.1e-10 | 5.4e-09 | – |
| COc1ccc(C(=O)C2CCN(C(=O)CCCc3nn4cc(F)cc4c(=O)[nH]3)CC2)cc1 [Compound C39, 6-Fluoro-2-{4-[4-(4-methoxy-benzoyl)-piperidin-1-yl]-4-oxo-butyl}-3H-pyrrolo[2,1-f][1,2,4]triazin-4-one] | 2100 | 0.18 | 3.7e-10 | 3.1e-09 | – |
| COc1ccc(C(=O)C2CCN(C(=O)CCCc3nc4c(ccn4C)c(=O)[nH]3)CC2)cc1 [Compound C40, 2-{4-[4-(4-Methoxy-benzoyl)-piperidin-1-yl]-4-oxo-butyl}-7-methyl-3,7-dihydro-pyrrolo[2,3-d]pyrimidin-4-one] | 1600 | 0.17 | < 1e-10 | 3.2e-09 | – |
| Cn1ncc2c(=O)[nH]c(CCCC(=O)N3CCC(c4cnc(N)c(C#N)c4)CC3)nc21 [Compound C44, 6-Amino-1′-[4-(1-methyl-4-oxo-4,5-dihydro-1H-pyrazolo[3,4-d]pyrimidin-6-yl)-butyryl]-1′,2′,3′,4′,5′,6′-hexahydro-[3,4′]bipyridinyl-5-carbonitrile] | 18000 | 1.6 | 9.7e-10 | 4e-07 | – |
| Cn1ncc2c(=O)[nH]c(CCCC(=O)N3CCC(c4nnc(-c5ccccc5)o4)CC3)nc21 [Compound C46, 1-Methyl-6-{4-oxo-4[4-(5-phenyl-[1,3,4]oxadiazol-2-yl)-piperidin-1-yl]-butyl}-1,5-dihydro-pyrazolo[3,4-d]pyrimidin-4-one] | 7200 | 2.9 | 2.4e-09 | 6.6e-08 | – |
| Cn1ncc2c(=O)[nH]c(CCCC(=O)N3CCC(Oc4ccc(C#N)cc4)CC3)nc21 [Compound C47, 4-{1-[4-(1-Methyl-4-oxo-4,5-dihydro-1H-pyrazolo[3,4-d]pyrimidin-6-yl)-butyryl]-piperidin-4-yloxy}-benzonitrile] | 4400 | 110 | 4.1e-08 | 4.5e-07 | – |
| COc1ccc(C(=O)C2CCN(C(=O)CCCc3nc4c(cnn4C)c(=O)[nH]3)CC2)cc1C [Compound C49, 6-{4-[4-(4-Methoxy-3-methyl-benzoyl)-piperidin-1-yl]-4-oxo-butyl}-1-methyl-1,5-dihydro-pyrazolo[3,4-d]pyrimidin-4-one] | 9900 | 0.16 | 1.4e-10 | 3.1e-10 | – |
| Cn1ncc2c(=O)[nH]c(CCCC(=O)N3CCC(C(=O)c4ccc(C(C)(C)O)cc4)CC3)nc21 [Compound C50, 6-{4-{4-[4-(1-Hydroxy-1-methyl-ethyl)benzoyl]-1-piperidyl}-4-oxo-butyl}-1-methyl-5H-pyrazolo[3,4-d]pyrimidin-4-one] | 23000 | 11 | 4e-09 | 3.8e-07 | – |
| Cc1csc2c(=O)[nH]c(CCCC(=O)N3CCC(c4nnc(-c5ccccc5)o4)CC3)nc12 [Compound C54, 7-Methyl-2-{4-oxo-4-[4-(5-phenyl-[1,3,4]oxadiazol-2-yl)-piperidin-1-yl]-butyl}-3H-thieno[3,2-d]pyrimidin-4-one] | 1500 | 4.7 | 1.8e-09 | 1.4e-08 | – |
| COc1ccc(C(=O)C2CCN(C(=O)CCCc3nc4c(C)csc4c(=O)[nH]3)CC2)cc1F [Compound C55, 2-{4-[4-(3-Fluoro-4-methoxy-benzoyl)-piperidin-1-yl]-4-oxo-butyl}-7-methyl-3H-thieno[3,2-d]pyrimidin-4-one] | 400 | 0.18 | 1.2e-10 | 1.9e-09 | – |
| Cc1csc2c(=O)[nH]c(CCCC(=O)N3CCC(c4cnc(N)c(C#N)c4)CC3)nc12 [Compound C56, 6-Amino-1′-[4-(7-methyl-4-oxo-3,4-dihydro-thieno[3,2-d]pyrimidin-2-yl)-butyryl]-1′,2′,3′,4′,5′,6′-hexahydro-[3,4′]bipyridinyl-5-carbonitrile] | 360 | 0.95 | 5.3e-10 | 3.6e-08 | – |
| COc1ccc(C(=O)C2CCN(C(=O)CCCc3cn4c(C)ccc4c(=O)[nH]3)CC2)cn1 [Compound C57, 3-{4-[4-(6-Methoxy-pyridine-3-carbonyl)-piperidin-1-yl]-4-oxo-butyl}-6-methyl-2H-pyrrolo[1,2-a]pyrazin-1-one] | 0.48 | 0.19 | – | 7.7e-10 | 1.8e-10 |
| Cc1ccc2c(=O)[nH]c(CCCC(=O)N3CCC(C(=O)c4cnn(C)c4)CC3)cn12 [Compound C62, 6-Methyl-3-{4-[4-(1-methyl-1H-pyrazole-4-carbonyl)-piperidin-1-yl]-4-oxo-butyl}-2H-pyrrolo[1,2-a]pyrazin-1-one] | 800 | 0.16 | 1.2e-10 | 3.5e-09 | – |
| Cn1cc(C(=O)C2CCN(C(=O)CCCc3cn4cc(F)cc4c(=O)[nH]3)CC2)cn1 [Compound C78, 7-Fluoro-3-{4-[4-(1-methyl-1H-pyrazole-4-carbonyl)-piperidin-1-yl]-4-oxo-butyl}-2H-pyrrolo[1,2-a]pyrazin-1-one] | 1200 | 0.24 | 1.6e-10 | 2.9e-09 | – |
